As usually defined, the chromatographic logP is lipophilicity estimated from chromatographic retention. Lower therefore signals a more hydrophilic compound.

The subject of data set [1] is PHBPU. As to the kind of experiment: Post-emergence herbicidal effect. Type of data set: in vivo. As to conditions: Dosage 320 g/ha, one-leaf stage, visual scoring after ca. 3 weeks vs untreated controls, 100% = plants have died. The procedure:
2. Post-Emergence Herbicidal Effect and Crop Plant Compatibility Seeds of monocotyledonous or dicotyledonous weed plants or crop plants are planted in wood-fiber pots in sandy loam, covered with earth and grown in a greenhouse under good growth conditions. 2 to 3 weeks after sowing, the test plants are treated in the one-leaf stage. The compounds according to the invention, formulated in the form of wettable powders (WP) or as emulsion concentrates (EC), are then sprayed onto the green plant parts as aqueous suspension or emulsion at a water application rate of 600 to 800 l/ha (converted) with the addition of 0.2% of wetting agent. The dosage of the compounds according to the invention is given in grams per hectare. After ca. 3 weeks' standing time of the test plants in the greenhouse under optimum growth conditions, the effect of the preparations is scored visually in comparison with untreated controls (herbicidal effect in percent (%): 100% effect=plants have died, 0% effect=as control plants).

The subject of data set [2] is Veronica persica. As to the kind of experiment: Post-emergence herbicidal effect. The class given is in vivo. The note with it: Dosage 320 g/ha, one-leaf stage, visual scoring after ca. 3 weeks vs untreated controls, 100% = plants have died. The procedure, abridged: (§1)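 Seeds are sown in sandy loam and raised in a greenhouse. When seedlings reach one leaf, two to three weeks on, green parts are sprayed with the wettable-powder or emulsion-concentrate formulation at a stated grams-per-hectare dose. After roughly three weeks, injury is rated by eye as percent effect against controls.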

For data set [3], the system named is Echinochloa crus-galli. As to the kind of experiment: Post-emergence herbicidal effect. The note with it: Dosage 320 g/ha, one-leaf stage, visual scoring after ca. 3 weeks vs untreated controls, 100% = plants have died. The class given is in vivo. In short, it runs like this:
as §1

Data set [4] relates to Abutilon theophrasti. As to the kind of experiment: Post-emergence herbicidal effect. As to conditions: Dosage 320 g/ha, one-leaf stage, visual scoring after ca. 3 weeks vs untreated controls, 100% = plants have died. Type of data set: in vivo. The procedure, abridged:
as §1

The subject of data set [5] is Lolium multiflorum. As to the kind of experiment: Post-emergence herbicidal effect. The class given is in vivo. As to conditions: Dosage 320 g/ha, one-leaf stage, visual scoring after ca. 3 weeks vs untreated controls, 100% = plants have died. The procedure, abridged:
as §1

Data set [6] deals with Alopecurus myosuroides. As to the kind of experiment: Post-emergence herbicidal effect. The class given is in vivo. The note with it: Dosage 320 g/ha, one-leaf stage, visual scoring after ca. 3 weeks vs untreated controls, 100% = plants have died. The procedure, abridged: as §1
The test system of data set [7] is Matricaria inodora. As to the kind of experiment: Post-emergence herbicidal effect. The class given is in vivo. As to conditions: Dosage 320 g/ha, one-leaf stage, visual scoring after ca. 3 weeks vs untreated controls, 100% = plants have died. In short, it runs like this:
as §1

Data set [8] concerns Stellaria media. As to the kind of experiment: Post-emergence herbicidal effect. As to conditions: Dosage 320 g/ha, one-leaf stage, visual scoring after ca. 3 weeks vs untreated controls, 100% = plants have died. The class given is in vivo. The procedure, abridged:
as §1

Data set [9] concerns Setaria viridis. As to the kind of experiment: Post-emergence herbicidal effect. The class given is in vivo. As to conditions: Dosage 320 g/ha, one-leaf stage, visual scoring after ca. 3 weeks vs untreated controls, 100% = plants have died. In short, it runs like this: as §1
Data set [10] deals with Viola tricolor. As to the kind of experiment: Post-emergence herbicidal effect. The class given is in vivo. As to conditions: Dosage 320 g/ha, one-leaf stage, visual scoring after ca. 3 weeks vs untreated controls, 100% = plants have died. In short, it runs like this: as §1
In data set [11] the test system is Amaranthus retroflexus. As to the kind of experiment: Post-emergence herbicidal effect. The class given is in vivo. The note with it: Dosage 320 g/ha, one-leaf stage, visual scoring after ca. 3 weeks vs untreated controls, 100% = plants have died. In short, it runs like this:
as §1

The subject of data set [12] is Veronica persica. As to the kind of experiment: Pre-emergence herbicidal effect. Type of data set: in vivo. The note with it: Dosage 320 g/ha, visual scoring after 3 weeks vs untreated controls, 100% = plants have died. The procedure, abridged: (§2)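 Seeds sown in sandy loam and covered with soil; compound (WP or EC formulation) sprayed onto soil surface as aqueous suspension/emulsion at 600 to 800 l/ha water with 0.2% wetting agent, dose in g/ha. Greenhouse; visual damage scored after 3 weeks versus untreated controls (0% = control, 100% = dead).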

The subject of data set [13] is Echinochloa crus-galli. As to the kind of experiment: Pre-emergence herbicidal effect. The note with it: Dosage 320 g/ha, visual scoring after 3 weeks vs untreated controls, 100% = plants have died. The class given is in vivo. The procedure, abridged:
as §2

Data set [14] deals with Abutilon theophrasti. As to the kind of experiment: Pre-emergence herbicidal effect. The note with it: Dosage 320 g/ha, visual scoring after 3 weeks vs untreated controls, 100% = plants have died. The class given is in vivo. In short, it runs like this: as §2
Data set [15] relates to Lolium multiflorum. As to the kind of experiment: Pre-emergence herbicidal effect. The class given is in vivo. The note with it: Dosage 320 g/ha, visual scoring after 3 weeks vs untreated controls, 100% = plants have died. The procedure, abridged: as §2
In data set [16] the test system is Alopecurus myosuroides. As to the kind of experiment: Pre-emergence herbicidal effect. Type of data set: in vivo. As to conditions: Dosage 320 g/ha, visual scoring after 3 weeks vs untreated controls, 100% = plants have died. The procedure, abridged: as §2
Data set [17] relates to Matricaria inodora. As to the kind of experiment: Pre-emergence herbicidal effect. The class given is in vivo. As to conditions: Dosage 320 g/ha, visual scoring after 3 weeks vs untreated controls, 100% = plants have died. The procedure, abridged:
as §2

Data set [18] has as its system Avena fatua. As to the kind of experiment: Pre-emergence herbicidal effect. The class given is in vivo. The note with it: Dosage 320 g/ha, visual scoring after 3 weeks vs untreated controls, 100% = plants have died. The procedure, abridged: as §2
The subject of data set [19] is Stellaria media. As to the kind of experiment: Pre-emergence herbicidal effect. Type of data set: in vivo. The note with it: Dosage 320 g/ha, visual scoring after 3 weeks vs untreated controls, 100% = plants have died. In short, it runs like this:
as §2

For data set [20], the system named is Setaria viridis. As to the kind of experiment: Pre-emergence herbicidal effect. The class given is in vivo. As to conditions: Dosage 320 g/ha, visual scoring after 3 weeks vs untreated controls, 100% = plants have died. The procedure, abridged:
as §2

Data set [21] has as its system Cyperus esculentus. As to the kind of experiment: Pre-emergence herbicidal effect. The class given is in vivo. As to conditions: Dosage 320 g/ha, visual scoring after 3 weeks vs untreated controls, 100% = plants have died. The procedure, abridged:
as §2

In data set [22] the test system is Amaranthus retroflexus. As to the kind of experiment: Pre-emergence herbicidal effect. The class given is in vivo. As to conditions: Dosage 320 g/ha, visual scoring after 3 weeks vs untreated controls, 100% = plants have died. In short, it runs like this: as §2
In data set [23] the test system is Polygonum convolvulus. As to the kind of experiment: Post-emergence herbicidal effect. As to conditions: Dosage 320 g/ha, one-leaf stage, visual scoring after ca. 3 weeks vs untreated controls, 100% = plants have died. The class given is in vivo. In short, it runs like this:
as §1

In data set [24] the test system is Avena fatua. As to the kind of experiment: Post-emergence herbicidal effect. The class given is in vivo. The note with it: Dosage 320 g/ha, one-leaf stage, visual scoring after ca. 3 weeks vs untreated controls, 100% = plants have died. The procedure, abridged:
as §1

The nature of data set [25]: logp (HCOOH), chemicophysical data. As to conditions: HCOOH (formic acid).
The subject of data set [26] is Polygonum convolvulus. As to the kind of experiment: Pre-emergence herbicidal effect. The class given is in vivo. As to conditions: Dosage 320 g/ha, visual scoring after 3 weeks vs untreated controls, 100% = plants have died. The procedure, abridged:
as §2

Data set [27] concerns Viola tricolor. As to the kind of experiment: Pre-emergence herbicidal effect. Type of data set: in vivo. The note with it: Dosage 320 g/ha, visual scoring after 3 weeks vs untreated controls, 100% = plants have died. In short, it runs like this:
as §2

With `Cc1nc(N[C@@H]2CCCc3ccccc32)nc(N)c1C#N` [Example 1.18], the “Post-emergence herbicidal effect PHBPU” value in data set [1] is 80%. The “Post-emergence herbicidal effect VERPE” value in data set [2] stood at 83%. In data set [3], the “Post-emergence herbicidal effect ECHCG” value is 87%. Further, in [4], the “Post-emergence herbicidal effect ABUTH” value is reported as 85%. Also, in data set [5], the “Post-emergence herbicidal effect LOLMU” value turned out to be 87%. In addition, the “Post-emergence herbicidal effect ALOMY” value in data set [6] was 85%. Moreover, the “Post-emergence herbicidal effect MATIN” value in data set [7] was found to be 80%. Further, the “Post-emergence herbicidal effect STEME” value in data set [8] worked out at 93%. The “Post-emergence herbicidal effect SETVI” value in [9] was 90%. Also, the “Post-emergence herbicidal effect VIOTR” value in [10] is 85%. Besides, in [11], the “Post-emergence herbicidal effect AMARE” value came to 85%. For the same compound, the “Pre-emergence herbicidal effect VERPE” value in data set [12] was 100%. Also, the “Pre-emergence herbicidal effect ECHCG” value in data set [13] is given as 100%. Further, the “Pre-emergence herbicidal effect ABUTH” value in data set [14] is given as 100%. The “Pre-emergence herbicidal effect LOLMU” value in data set [15] is on record as 100%. For the same compound, the “Pre-emergence herbicidal effect ALOMY” value in data set [16] was 100%. In data set [17], the “Pre-emergence herbicidal effect MATIN” value is reported as 100%. Further, in data set [18], the “Pre-emergence herbicidal effect AVEFA” value is on record as 90%. The “Pre-emergence herbicidal effect STEME” value in [19] was 100%. Moreover, the “Pre-emergence herbicidal effect SETVI” value in data set [20] is given as 100%. The “Pre-emergence herbicidal effect CYPES” value in [21] stood at 80%. The “Pre-emergence herbicidal effect AMARE” value in data set [22] amounted to 100%.
In the case of `N#Cc1cnc(N[C@@H]2CCCc3ccccc32)nc1N` [Example 1.30, 4-Amino-2-[(1R)-1,2,3,4-tetrahydronaphthalen-1-ylamino]pyrimidine-5-carbonitrile], the “Post-emergence herbicidal effect VERPE” value in data set [2] worked out at 90%. Further, the “Post-emergence herbicidal effect ECHCG” value in data set [3] is 100%. Moreover, the “Post-emergence herbicidal effect LOLMU” value in [5] was determined as 100%. Besides, in data set [6], the “Post-emergence herbicidal effect ALOMY” value is 95%. Also, the “Post-emergence herbicidal effect POLCO” value in [23] is reported as 80%. Besides, in data set [7], the “Post-emergence herbicidal effect MATIN” value was found to be 80%. In addition, the “Post-emergence herbicidal effect AVEFA” value in data set [24] is 100%. Also, the “Post-emergence herbicidal effect STEME” value in data set [8] is recorded as 80%. Moreover, the “Post-emergence herbicidal effect SETVI” value in data set [9] was determined as 95%. In data set [11], the “Post-emergence herbicidal effect AMARE” value is 93%. In data set [25], the chromatographic logP is 1.92. In addition, in data set [12], the “Pre-emergence herbicidal effect VERPE” value is 100%. The “Pre-emergence herbicidal effect ECHCG” value in data set [13] turned out to be 100%. The “Pre-emergence herbicidal effect LOLMU” value in data set [15] turned out to be 100%. For the same compound, the “Pre-emergence herbicidal effect ALOMY” value in [16] is 100%. For the same compound, the “Pre-emergence herbicidal effect POLCO” value in [26] was found to be 100%. Also, in data set [17], the “Pre-emergence herbicidal effect MATIN” value is listed as 100%. The “Pre-emergence herbicidal effect AVEFA” value in data set [18] is 100%. Further, the “Pre-emergence herbicidal effect STEME” value in data set [19] was determined as 100%. For the same compound, in data set [20], the “Pre-emergence herbicidal effect SETVI” value is given as 100%. Moreover, the “Pre-emergence herbicidal effect VIOTR” value in [27] was determined as 100%. In addition, the “Pre-emergence herbicidal effect AMARE” value in data set [22] is 100%.

(Values after US8329717B2, “Pyrimidine derivatives and their use for controlling undesired plant growth” (Bayer Cropscience AG, priority 2008, dated 2012).)
